Data from PubChem BioAssay AID2060612 (Molecular Pharmacology Branch, DTP, NCI, 2025).
pIC50: −log10 of the molar value.

Tested on: 565232-114-T-J1-PDC complex spheroid viability
Experiment: Anticancer human tumor 565232-114-T-J1-PDC patient-derived bladder carcinoma cell line growth inhibition [CLK]
Conditions: for pIC50: curve of first compound; for viability, T/C: stronger effect = lower value
Procedure, shortened: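 Patient-derived tumor cells grown as complex spheroids with HUVEC endothelial cells and mesenchymal stem cells, treated with drug combinations. Concentrations descend in half-log steps from near clinical Cmax, or from 10 microM if Cmax unknown.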

[1] = second compound 0.0316 µM, first compound 0.0316 µM
[2] = second compound 0.0316 µM, first compound 0.1 µM
[3] = second compound 0.1 µM, first compound 0.0316 µM
[4] = second compound 0.1 µM, first compound 0.1 µM
[5] = second compound 0.316 µM, first compound 0.0316 µM
[6] = second compound 0.316 µM, first compound 0.1 µM
[7] = second compound 1 µM, first compound 0.0316 µM
[8] = second compound 1 µM, first compound 0.1 µM
[9] = second compound 3.16 µM, first compound 0.0316 µM
[10] = second compound 3.16 µM, first compound 0.1 µM
[11] = second compound 10 µM, first compound 0.0316 µM
[12] = second compound 10 µM, first compound 0.1 µM
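Also: spheroids exposed to compounds for 7 days before readout.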
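For viability, T/C in this document: 100% = DMSO vehicle wells with luminescence normalized to vehicle control.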

Cn1ncnc1[C@H]1c2n[nH]c(=O)c3cc(F)cc(c23)N[C@@H]1c1ccc(F)cc1 + CNC(=O)c1ccc(Nc2nc(OC3CCCC3)c3c(-c4ccc5nc(C)oc5c4)c[nH]c3n2)c(OC)c1 showed a pIC50 (second compound 0.0316 µM) of under 7.00, a pIC50 (second compound 0.1 µM) of over 9.50 and a pIC50 (second compound 0.316 µM) of over 9.50. It also gave a pIC50 (second compound 1 µM) of over 9.50, a pIC50 (second compound 3.16 µM) of over 9.50 and a pIC50 (second compound 10 µM) of over 9.50. For the same molecule, the viability, T/C (second compound 0.0316 µM, first compound 0.000316 µM) was 107%, the viability, T/C (second compound 0.0316 µM, first compound 0.001 µM) was 81.8% and the viability, T/C (second compound 0.0316 µM, first compound 0.00316 µM) was 94.9%. For the same molecule, the viability, T/C (second compound 0.0316 µM, first compound 0.01 µM) was 95%, the viability, T/C [1] was 84.8% and the viability, T/C [2] was 53.2%. For the same molecule, the viability, T/C (second compound 0.1 µM, first compound 0.000316 µM) was 50%, the viability, T/C (second compound 0.1 µM, first compound 0.001 µM) was 44.4% and the viability, T/C (second compound 0.1 µM, first compound 0.00316 µM) was 53.3%. It also gave a viability, T/C (second compound 0.1 µM, first compound 0.01 µM) of 43.6%, a viability, T/C [3] of 34.7% and a viability, T/C [4] of 23.3%. It also gave a viability, T/C (second compound 0.316 µM, first compound 0.000316 µM) of 31.4%, a viability, T/C (second compound 0.316 µM, first compound 0.001 µM) of 29.8% and a viability, T/C (second compound 0.316 µM, first compound 0.00316 µM) of 30.4%. The viability, T/C (second compound 0.316 µM, first compound 0.01 µM) was 26.4%, the viability, T/C [5] was 25.7% and the viability, T/C [6] was 15.4%. It also gave a viability, T/C (second compound 1 µM, first compound 0.000316 µM) of 21.9%, a viability, T/C (second compound 1 µM, first compound 0.001 µM) of 22.3% and a viability, T/C (second compound 1 µM, first compound 0.00316 µM) of 20%. For the same molecule, the viability, T/C (second compound 1 µM, first compound 0.01 µM) was 16.9%, the viability, T/C [7] was 22.2% and the viability, T/C [8] was 15.7%. For the same molecule, the viability, T/C (second compound 3.16 µM, first compound 0.000316 µM) was 12.3%, the viability, T/C (second compound 3.16 µM, first compound 0.001 µM) was 20.6% and the viability, T/C (second compound 3.16 µM, first compound 0.00316 µM) was 18.7%. It also gave a viability, T/C (second compound 3.16 µM, first compound 0.01 µM) of 16.4%, a viability, T/C [9] of 20.2% and a viability, T/C [10] of 12.4%. The viability, T/C (second compound 10 µM, first compound 0.000316 µM) was 20.4%, the viability, T/C (second compound 10 µM, first compound 0.001 µM) was 16.1% and the viability, T/C (second compound 10 µM, first compound 0.00316 µM) was 20.3%. The viability, T/C (second compound 10 µM, first compound 0.01 µM) was 19.5%, the viability, T/C [11] was 17.8% and the viability, T/C [12] was 11.4%.

Work on O=C(c1cc(Cc2n[nH]c(=O)c3ccccc23)ccc1F)N1CCN(C(=O)C2CC2)CC1 + CNC(=O)c1ccc(Nc2nc(OC3CCCC3)c3c(-c4ccc5nc(C)oc5c4)c[nH]c3n2)c(OC)c1 yielded a pIC50 (second compound 0.0316 µM) of under 5.00, a pIC50 (second compound 0.1 µM) of 5.82 and a pIC50 (second compound 0.316 µM) of over 7.50. The pIC50 (second compound 1 µM) was over 7.50, the pIC50 (second compound 3.16 µM) was over 7.50 and the pIC50 (second compound 10 µM) was over 7.50. For the same molecule, the viability, T/C [1] was 81.7%, the viability, T/C [2] was 85.9% and the viability, T/C (second compound 0.0316 µM, first compound 0.316 µM) was 87.8%. It also gave a viability, T/C (second compound 0.0316 µM, first compound 1 µM) of 82.8%, a viability, T/C (second compound 0.0316 µM, first compound 3.16 µM) of 104% and a viability, T/C (second compound 0.0316 µM, first compound 10 µM) of 64.8%. For the same molecule, the viability, T/C [3] was 49%, the viability, T/C [4] was 52.6% and the viability, T/C (second compound 0.1 µM, first compound 0.316 µM) was 63.5%. For the same molecule, the viability, T/C (second compound 0.1 µM, first compound 1 µM) was 48.8%, the viability, T/C (second compound 0.1 µM, first compound 3.16 µM) was 45.7% and the viability, T/C (second compound 0.1 µM, first compound 10 µM) was 34%. It also gave a viability, T/C [5] of 36.4%, a viability, T/C [6] of 40.3% and a viability, T/C (second compound 0.316 µM, first compound 0.316 µM) of 30.4%. It also gave a viability, T/C (second compound 0.316 µM, first compound 1 µM) of 32.4%, a viability, T/C (second compound 0.316 µM, first compound 3.16 µM) of 33.4% and a viability, T/C (second compound 0.316 µM, first compound 10 µM) of 30.2%. It also gave a viability, T/C [7] of 24%, a viability, T/C [8] of 26.8% and a viability, T/C (second compound 1 µM, first compound 0.316 µM) of 23.2%. For the same molecule, the viability, T/C (second compound 1 µM, first compound 1 µM) was 22.8%, the viability, T/C (second compound 1 µM, first compound 3.16 µM) was 27.1% and the viability, T/C (second compound 1 µM, first compound 10 µM) was 24.8%. It also gave a viability, T/C [9] of 22.5%, a viability, T/C [10] of 23.4% and a viability, T/C (second compound 3.16 µM, first compound 0.316 µM) of 21.3%. The viability, T/C (second compound 3.16 µM, first compound 1 µM) was 21.7%, the viability, T/C (second compound 3.16 µM, first compound 3.16 µM) was 22.4% and the viability, T/C (second compound 3.16 µM, first compound 10 µM) was 19.3%. It also gave a viability, T/C [11] of 23.2%, a viability, T/C [12] of 25.5% and a viability, T/C (second compound 10 µM, first compound 0.316 µM) of 16.5%. For the same molecule, the viability, T/C (second compound 10 µM, first compound 1 µM) was 22.3%, the viability, T/C (second compound 10 µM, first compound 3.16 µM) was 21% and the viability, T/C (second compound 10 µM, first compound 10 µM) was 18.2%.
